Measured values published in patent US20250026708A1, “PROCESS FOR PREPARATION OF TRIHEPTANOIN” (Navinta, LLC, priority 2023, published 2025).

Experiment: Stability study of triheptanoin on storage (acid value, diester impurities, purity by GC and/or HPLC)
Assay type: physicochemical
Method: The stability data of the present invention at different stability condition(s) from initial to up to 6 (six) months is described below in Table-I: As shown in Table-I, two batches (Example 16 & Example 17) of triheptanoin prepared by the present method with acid values of […] about 0.2 mg KOH/gm were studied for stability. The samples were kept at 25° C./60% RH, 40° C./75% RH for up to 6 months and at 50° C. for up to 3 months. During the stability study, the inventors of the present invention have focused on % of 1,2-Diester Impurity, % of 1,3-Diester Impurity and purity of triheptanoin.

[1] = 25° C./60% RH, 3 M, listed as Example 17
[2] = 25° C./60% RH, 6 M, listed as Example 17
[3] = 25° C./60% RH, 40° C./75% RH up to 6 months, 50° C. up to 3 months, acid value greater than about 0.2 mg KOH/gm
[4] = 40° C./75% RH, 1 M, listed as Example 17
[5] = 40° C./75% RH, 2 M, listed as Example 17
[6] = 40° C./75% RH, 3 M, listed as Example 17
[7] = 40° C./75% RH, 6 M, listed as Example 17
[8] = 50° C., 1 M, listed as Example 17
[9] = 50° C., 2 M, listed as Example 17
[10] = 50° C., 3 M, listed as Example 17

Structure (SMILES): CCCCCCC(=O)OCC(COC(=O)CCCCCC)OC(=O)CCCCCC [Example 16, heptanoic acid, 1,1′,1″-(1,2,3 propanetriyl) ester]
- 1,2 Diester Impurity (NMT 0.05%) (25° C./60% RH, 1 M): 0.004%
- 1,3 Diester Impurity (NMT 0.05%) (25° C./60% RH, 1 M): 0.002%
- Acid value (25° C./60% RH, 1 M): 0.24 mg KOH/gm
- Triheptanoin purity (25° C./60% RH, 1 M): 99.83%
- Triheptanoin purity (25° C./60% RH, 1 M, listed as Example 17): 99.82%
- 1,2 Diester Impurity (NMT 0.05%) (25° C./60% RH, 3 M): 0.007%
- 1,3 Diester Impurity (NMT 0.05%) (25° C./60% RH, 3 M): 0.002%
- Acid value (25° C./60% RH, 3 M): 0.23 mg KOH/gm
- Triheptanoin purity (25° C./60% RH, 3 M): 99.82%
- 1,2 Diester Impurity (NMT 0.05%) [1]: 0.004%
- 1,3 Diester Impurity (NMT 0.05%) [1]: 0.003%
- Acid value [1]: 0.22 mg KOH/gm
- Triheptanoin purity [1]: 99.84%
- 1,2 Diester Impurity (NMT 0.05%) (25° C./60% RH, 6 M): 0.005%
- 1,3 Diester Impurity (NMT 0.05%) (25° C./60% RH, 6 M): 0.009%
- Acid value (25° C./60% RH, 6 M): 0.27 mg KOH/gm
- Triheptanoin purity (25° C./60% RH, 6 M): 99.81%
- 1,2 Diester Impurity (NMT 0.05%) [2]: 0.003%
- 1,3 Diester Impurity (NMT 0.05%) [2]: 0.004%
- Triheptanoin purity [2]: 99.82%
- 1,2-Diester and 1,3-Diester impurities during the storage [3]: not increasing
- assay potency of triheptanoin during the storage [3]: maintained
- purity of triheptanoin during storage as measured by GC and/or HPLC [3]: greater than 99.7%
- 1,2 Diester Impurity (NMT 0.05%) (40° C./75% RH, 1 M): 0.005%
- 1,3 Diester Impurity (NMT 0.05%) (40° C./75% RH, 1 M): 0.003%
- Acid value (40° C./75% RH, 1 M): 0.24 mg KOH/gm
- Triheptanoin purity (40° C./75% RH, 1 M): 99.83%
- 1,2 Diester Impurity (NMT 0.05%) [4]: 0.004%
- 1,3 Diester Impurity (NMT 0.05%) [4]: 0.004%
- Triheptanoin purity [4]: 99.82%
- 1,2 Diester Impurity (NMT 0.05%) (40° C./75% RH, 2 M): 0.008%
- 1,3 Diester Impurity (NMT 0.05%) (40° C./75% RH, 2 M): 0.005%
- Acid value (40° C./75% RH, 2 M): 0.24 mg KOH/gm
- Triheptanoin purity (40° C./75% RH, 2 M): 99.78%
- 1,2 Diester Impurity (NMT 0.05%) [5]: 0.006%
- 1,3 Diester Impurity (NMT 0.05%) [5]: 0.003%
- Acid value [5]: 0.25 mg KOH/gm
- Triheptanoin purity [5]: 99.81%
- 1,2 Diester Impurity (NMT 0.05%) (40° C./75% RH, 3 M): 0.013%
- 1,3 Diester Impurity (NMT 0.05%) (40° C./75% RH, 3 M): 0.007%
- Acid value (40° C./75% RH, 3 M): 0.24 mg KOH/gm
- Triheptanoin purity (40° C./75% RH, 3 M): 99.82%
- 1,2 Diester Impurity (NMT 0.05%) [6]: 0.006%
- 1,3 Diester Impurity (NMT 0.05%) [6]: 0.005%
- Acid value [6]: 0.23 mg KOH/gm
- 1,2 Diester Impurity (NMT 0.05%) (40° C./75% RH, 6 M): 0.018%
- 1,3 Diester Impurity (NMT 0.05%) (40° C./75% RH, 6 M): 0.015%
- Acid value (40° C./75% RH, 6 M): 0.26 mg KOH/gm
- Triheptanoin purity (40° C./75% RH, 6 M): 99.74%
- 1,2 Diester Impurity (NMT 0.05%) [7]: 0.011%
- 1,3 Diester Impurity (NMT 0.05%) [7]: 0.014%
- Acid value [7]: 0.29 mg KOH/gm
- Triheptanoin purity [7]: 99.81%
- 1,2 Diester Impurity (NMT 0.05%) (50° C., 1 M): 0.008%
- 1,3 Diester Impurity (NMT 0.05%) (50° C., 1 M): 0.005%
- Acid value (50° C., 1 M): 0.24 mg KOH/gm
- Triheptanoin purity (50° C., 1 M): 99.83%
- 1,2 Diester Impurity (NMT 0.05%) [8]: 0.005%
- 1,3 Diester Impurity (NMT 0.05%) [8]: 0.004%
- Triheptanoin purity [8]: 99.81%
- 1,2 Diester Impurity (NMT 0.05%) (50° C., 2 M): 0.014%
- 1,3 Diester Impurity (NMT 0.05%) (50° C., 2 M): 0.010%
- Acid value (50° C., 2 M): 0.24 mg KOH/gm
- Triheptanoin purity (50° C., 2 M): 99.76%
- 1,2 Diester Impurity (NMT 0.05%) [9]: 0.008%
- 1,3 Diester Impurity (NMT 0.05%) [9]: 0.007%
- Acid value [9]: 0.25 mg KOH/gm
- Triheptanoin purity [9]: 99.78%
- 1,2 Diester Impurity (NMT 0.05%) (50° C., 3 M): 0.014%
- 1,3 Diester Impurity (NMT 0.05%) (50° C., 3 M): 0.012%
- Acid value (50° C., 3 M): 0.25 mg KOH/gm
- Triheptanoin purity (50° C., 3 M): 99.80%
- 1,2 Diester Impurity (NMT 0.05%) [10]: 0.010%
- 1,3 Diester Impurity (NMT 0.05%) [10]: 0.010%
- Acid value [10]: 0.24 mg KOH/gm
- Triheptanoin purity [10]: 99.83%
- 1,2 Diester Impurity (NMT 0.05%) (Initial): 0.004%
- 1,3 Diester Impurity (NMT 0.05%) (Initial): 0.002%
- Acid value (Initial): 0.21 mg KOH/gm
- Triheptanoin purity (Initial): 99.76%
- 1,2 Diester Impurity (NMT 0.05%) (Initial, listed as Example 17): 0.003%
- Triheptanoin purity (Initial, listed as Example 17): 99.77%
